Measurements: patent US6156789A, “Method for treating abnormal cell proliferation in the brain” (Rhone-Poulenc Rorer S.A., priority 1998, dated 2000)
Several values for one entry are separate records, joined by “and”; a condition that tells them apart may be missing. Equal values may be shown once. Read-outs that look alike come from different tables or passages of the source.

Experiments:
[1] = Brain distribution of Compound A in mice with mammary C/16 adenocarcinomas (second method, brain tissue); format: in vivo, C3H/HeN female mice
Description: Mammary C/16 adenocarcinomas were implanted in C3H/HeN female mice. At least 7 days later, 4α,10β-diacetoxy-2α-benzoyloxy-5β,20-epoxy-1β-hydroxy-7β,8β-methylene-9-oxo-19-nor-11-taxen-13α-yl (2R,3S)-3-tert-butoxycarbonylamino-2-hydroxy-3-phenylpropionate ("Compound A") was administered to groups of female mice at doses of 9.5, 15.4, 24.8, 40 or 60.5 mg/kg by intravenous injection under 0.4 or 0.5 ml/injection over 15 seconds. The body weight and date of implantation were recorded for each mouse. Blood and tissue samples were taken 2, 5, 15, 30 and 45 minutes and 1, 4, 14, 24 and 48 hours, after administration. The plasma was separated from the blood samples at 4° C. and frozen immediately. The tissue and tumors were weighed and frozen immediately (-20° C.).
The plasma and tissue samples were then analyzed for the concentration of Compound A. The plasma was assayed by high pressure liquid chromatography with spectrophotometric detection. For the tissue, liver, heart, kidney, lung, spleen and tumor tissue, samples were assayed by a first method, while a second method was used for the brain tissue analyzed. In the first method, 0.2 g of tissue was combined with 2 ml of sodium phosphate buffer 0.1 M (pH:7) and homogenized. The homogenate was centrifuged and 0.5 ml of supernatant was injected into the chromatographic column. In the second method, 10 μl of standard solution was combined with 0.2 g of brain tissue. 2 ml of methanol/5% perchloric acid (50/50) were added and the mixture was homogenized. The homogenate was centrifuged and 100 μl of supernatant was injected into the chromatographic column.

[2] = Highest non toxic dose in the mouse; conditions: in vivo, iv, read-out: highest non toxic dose (HNTD)
[3] = 0.03 h, 40 μg/kg [sic], single mice
[4] = 0.03 h, 40 μg/kg [sic], single mice, 40 mg/kg, 1.8 min
[5] = 0.08 h, 40 μg/kg [sic], single mice, MEAN=b257
[6] = 0.08 h, 40 μg/kg [sic], single mice, MEAN=b257, 40 mg/kg, 4.8 min
[7] = 0.25 h, 40 μg/kg [sic], single mice
[8] = 0.25 h, 40 μg/kg [sic], single mice, 40 mg/kg, 15 min
[9] = 0.50 h, 40 μg/kg [sic], single mice
[10] = 0.75 h, 40 μg/kg [sic], single mice, MEAN=b278
[11] = 1 h, 40 μg/kg [sic], single mice
[12] = 1 h, 40 μg/kg [sic], single mice, 40 mg/kg, 60 min
[13] = 4 h, 40 μg/kg [sic], single mice
[14] = 4 h, 40 μg/kg [sic], single mice, 40 mg/kg, 240 min
[15] = 14 h, 40 μg/kg [sic], single mice
[16] = 24 h, 40 μg/kg [sic], single mice
[17] = 24 h, 40 μg/kg [sic], single mice, 40 mg/kg, 1440 min
[18] = 48 h, 40 μg/kg [sic], single mice

## CC(=O)O[C@H]1C(=O)[C@]23C[C@H]2C[C@H]2OC[C@@]2(OC(C)=O)[C@H]3[C@H](OC(=O)c2ccccc2)[C@]2(O)C[C@H](OC(=O)[C@H](O)[C@@H](NC(=O)OC(C)(C)C)c3ccccc3)C(C)=C1C2(C)C [Compound A, 4α,10β-diacetoxy-2α-benzoyloxy-5β,20-epoxy-1β-hydroxy-7β,8β-methylene-9-oxo-19-nor-11-taxen-13α-yl (2R,3S)-3-tert-butoxycarbonylamino-2-hydroxy-3-phenylpropionate]
[1]; 40 mg/kg i.v.
  brain and plasma AUCs at 4 hours compared: similar
[1]; 40 mg/kg i.v., mouse
  0 to infinity AUC in brain tissue compared with plasma: ten times that observed for plasma
[1]; [3]
  % of DOSE (brain): 0.42% and 0.53% and 0.47% and 0.36% and 0.45%
  AMOUNT In TISSUE (brain): 4.21 µg and 5.17 µg and 4.34 µg and 3.55 µg and 4.32 µg
[1]; [4]
  Brain CONC.: 11.32 µg/g and 9.51 µg/g and 7.64 µg/g and 9.57 µg/g
  RATIO BRAIN/PLASMA: 0.22 and 0.15
[1]; 0.033 h, 40 mg/kg
  Percentage of Compound A (of dose) in Brain: 0.19%
[1]; [5]
  % of DOSE (brain): 0.60% and 0.49% and 0.58% and 0.56%
  AMOUNT In TISSUE (brain): 6.14 µg and 4.62 µg and 5.62 µg and 5.46 µg
[1]; [6]
  Brain CONC.: 10.69 µg/g and 13.46 µg/g and 12.56 µg/g
  RATIO BRAIN/PLASMA: 0.27 and 0.29 and 0.34
[1]; [7]
  % of DOSE (brain): 0.58% and 0.52% and 0.67% and 0.66% and 0.61%
  AMOUNT In TISSUE (brain): 5.38 µg and 4.88 µg and 6.68 µg and 6.07 µg and 5.75 µg
[1]; [8]
  Brain CONC.: 11.16 µg/g and 15.37 µg/g and 13.12 µg/g and 13.21 µg/g
  RATIO BRAIN/PLASMA: 0.53 and 0.50 and 0.66 and 0.57
[1]; [9]
  % of DOSE (brain): 0.53% and 0.45% and 0.42% and 0.39%
  AMOUNT In TISSUE (brain): 4.78 µg and 4.56 µg and 3.87 µg and 3.53 µg and 4.19 µg
[1]; 0.50 h, 40 μg/kg [sic], single mice, 40 mg/kg, 30 min
  RATIO BRAIN/PLASMA: 0.69 and 0.75
[1]; [10]
  % of DOSE (brain): 0.38% and 0.53% and 0.50% and 0.45%
  AMOUNT In TISSUE (brain): 3.32 µg and 4.99 µg and 4.49 µg and 3.92 µg and 4.18 µg
[1]; 0.75 h, 40 μg/kg [sic], single mice, MEAN=b278, 40 mg/kg, 45 min
  Brain CONC.: 11.46 µg/g and 9.98 µg/g and 9.00 µg/g and 9.5 µg/g
[1]; [11]
  % of DOSE (brain): 0.54% and 0.34% and 0.33% and 0.43% and 0.41%
  AMOUNT In TISSUE (brain): 5.14 µg and 3.35 µg and 3.14 µg and 4.22 µg and 3.96 µg
[1]; [12]
  Brain CONC.: 7.23 µg/g and 7.33 µg/g and 9.05 µg/g and 8.77 µg/g
  RATIO BRAIN/PLASMA: 1.18 and 1.12
[1]; 1 h, 40 mg/kg
  Percentage of Compound A (of dose) in Brain: 0.41%
[1]; [13]
  % of DOSE (brain): 0.34% and 0.45% and 0.36% and 0.40% and 0.39%
  AMOUNT In TISSUE (brain): 3.27 µg and 4.27 µg and 3.40 µg and 3.67 µg and 3.65 µg
[1]; [14]
  Brain CONC.: 10.24 µg/g and 7.88 µg/g and 8.38 µg/g and 8.47 µg/g
  RATIO BRAIN/PLASMA: 2.46 and 2.7 and 2.71
[1]; 4 h, 40 mg/kg
  Percentage of Compound A (of dose) in Brain: 0.39%
[1]; [15]
  % of DOSE (brain): 0.40% and 0.44% and 0.28% and 0.38%
  AMOUNT In TISSUE (brain): 3.73 µg and 4.06 µg and 2.46 µg and 3.65 µg and 3.48 µg
[1]; 14 h, 40 μg/kg [sic], single mice, 40 mg/kg, 840 min
  Brain CONC.: 8.77 µg/g and 5.77 µg/g and 8.23 µg/g and 7.84 µg/g
[1]; [16]
  % of DOSE (brain): 0.39% and 0.29% and 0.33%
  AMOUNT In TISSUE (brain): 3.78 µg and 2.58 µg and 2.79 µg and 3.08 µg and 3.06 µg
[1]; [17]
  Brain CONC.: 6.00 µg/g and 6.20 µg/g and 7.03 µg/g and 6.95 µg/g
  RATIO BRAIN/PLASMA: 20.67 and 20.68
[1]; 24 h, 40 mg/kg
  Percentage of Compound A (of dose) in Brain: 0.33%
[1]; [18]
  % of DOSE (brain): 0.15% and 0.21% and 0.20% and 0.19%
  AMOUNT In TISSUE (brain): 1.55 µg and 2.02 µg and 2.13 µg and 1.97 µg and 1.92 µg
[1]; 48 h, 40 μg/kg [sic], single mice, 40 mg/kg, 2880 min
  Brain CONC.: 4.54 µg/g and 4.77 µg/g and 4.48 µg/g and 4.37 µg/g
[1]; 48 h, 40 mg/kg
  Percentage of Compound A (of dose) in Brain: 0.19%
[1]; dose = 40 mg/kg
  AUC 0-4 Hours, Brain: 36.3 µg·h/g
  AUC 0 to Infinity, Brain: 627 µg·h/g
  t 1/2, Brain: 47.6 h
[1]; mouse, brain, iv, 40 mg/kg, 40 mg/kg i.v., read-out: half-life of the distribution phase, brain (converted)
  half-life: 0.07 h
[1]; mouse, brain, iv, 40 mg/kg, 0.03 h, 40 μg/kg [sic], single mice, read-out: Brain CONC.
  concentration at 0.03 h: 9800 ng/g
[1]; mouse, brain, iv, 40 mg/kg, 0.08 h, 40 μg/kg [sic], single mice, MEAN=b257, read-out: Brain CONC.
  concentration at 0.08 h: 13500 ng/g
[1]; mouse, brain, iv, 40 mg/kg, 0.25 h, 40 μg/kg [sic], single mice, read-out: Brain CONC.
  concentration at 0.25 h: 13200 ng/g
[1]; mouse, brain, iv, 40 mg/kg, 0.50 h, 40 μg/kg [sic], single mice, read-out: Brain CONC.
  concentration at 0.5 h: 11200 ng/g
[1]; mouse, brain, iv, 40 mg/kg, 0.75 h, 40 μg/kg [sic], single mice, MEAN=b278, read-out: Brain CONC.
  concentration at 0.75 h: 7540 ng/g
[1]; mouse, brain, iv, 40 mg/kg, 1 h, 40 μg/kg [sic], single mice, read-out: Brain CONC.
  concentration at 1 h: 11500 ng/g
[1]; mouse, brain, iv, 40 mg/kg, 4 h, 40 μg/kg [sic], single mice, read-out: Brain CONC.
  concentration at 4 h: 7390 ng/g
[1]; mouse, brain, iv, 40 mg/kg, 14 h, 40 μg/kg [sic], single mice, read-out: Brain CONC.
  concentration at 14 h: 8570 ng/g
[1]; mouse, brain, iv, 40 mg/kg, 24 h, 40 μg/kg [sic], single mice, read-out: Brain CONC.
  concentration at 24 h: 8580 ng/g
[1]; mouse, brain, iv, 40 mg/kg, 48 h, 40 μg/kg [sic], single mice, read-out: Brain CONC.
  concentration at 48 h: 3670 ng/g
[1]; mouse, brain, iv, 40 mg/kg, read-out: t 1/2, Brain (converted)
  half-life: 47.6 h
[1]; mouse, brain, iv, 40 mg/kg i.v., read-out: time of maximum concentration, brain
  Tmax: 15 min
[1]; mouse, brain/plasma, iv, 40 mg/kg, 0.03 h, 40 μg/kg [sic], single mice, read-out: RATIO BRAIN/PLASMA
  Kp at 0.03 h: 0.2
[1]; mouse, brain/plasma, iv, 40 mg/kg, 0.08 h, 40 μg/kg [sic], single mice, MEAN=b257, read-out: RATIO BRAIN/PLASMA
  Kp at 0.08 h: 0.47
[1]; mouse, brain/plasma, iv, 40 mg/kg, 0.25 h, 40 μg/kg [sic], single mice, read-out: RATIO BRAIN/PLASMA
  Kp at 0.25 h: 0.6
[1]; mouse, brain/plasma, iv, 40 mg/kg, 0.50 h, 40 μg/kg [sic], single mice, read-out: RATIO BRAIN/PLASMA
  Kp at 0.5 h: 0.93
[1]; mouse, brain/plasma, iv, 40 mg/kg, 1 h, 40 μg/kg [sic], single mice, read-out: RATIO BRAIN/PLASMA
  Kp at 1 h: 1.42
[1]; mouse, brain/plasma, iv, 40 mg/kg, 4 h, 40 μg/kg [sic], single mice, read-out: RATIO BRAIN/PLASMA
  Kp at 4 h: 2.84
[1]; mouse, brain/plasma, iv, 40 mg/kg, 24 h, 40 μg/kg [sic], single mice, read-out: RATIO BRAIN/PLASMA
  Kp at 24 h: 20.7
[2]
  MTD: 40 mg/kg
